Measurements: patent publication US5162336A, “Tetrahydro-pyrido-indoles as cholecystokinin and gastrin antagonists” (Rhone-Poulenc Rorer Pharmaceuticals Inc., priority 1990, dated 1992)

Target: T1, Gastrin receptor (Cavia porcellus, UniProt H0VZC5)
T1 construct: The fundic mucosa is gently scraped off the submucosa; from tissue; host or cells: gastric glands from fundic mucosa of Hartley guinea pig
T1 sequence (H0VZC5 1-426): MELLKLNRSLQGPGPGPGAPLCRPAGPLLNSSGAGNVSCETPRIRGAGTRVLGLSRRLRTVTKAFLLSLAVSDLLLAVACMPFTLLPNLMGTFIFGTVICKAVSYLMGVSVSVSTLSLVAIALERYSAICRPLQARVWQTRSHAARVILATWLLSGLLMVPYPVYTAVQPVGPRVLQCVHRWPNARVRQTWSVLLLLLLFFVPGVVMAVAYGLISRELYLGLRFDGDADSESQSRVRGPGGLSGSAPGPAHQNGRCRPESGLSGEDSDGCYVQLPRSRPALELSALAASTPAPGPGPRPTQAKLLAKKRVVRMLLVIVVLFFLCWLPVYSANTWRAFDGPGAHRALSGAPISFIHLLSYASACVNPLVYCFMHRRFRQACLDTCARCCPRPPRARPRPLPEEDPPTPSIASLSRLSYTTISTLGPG
Assay: Gastrin receptor binding assay (displacement of 125I-(Leu-15)-Gastrin from guinea pig fundic glands)
Set-up: species or system guinea pig (Hartley Strain)
Settings: guinea pig fundic mucosa glands, 25° C., 30 min, read-out: In vitro Binding Data IC50 Gastrin
Protocol: (a) Phosphate Buffered Saline (PBS): 8.743 g NaCl, 523 mg K2 HPO4 and 76.8 mg NaH2 PO4 is dissolved in 1.0 liter of deionized water and the pH of the solution is adjusted to 7.3 with 5N NaOH.
(b) Buffer A: While adding Basal Medium Eagle (BME) containing Earle's Salts, L-glutamine and 25 mM HEPES, 3 liters of deionized water is stirred, followed by the addition and dissolution of […] of sodium bicarbonate. The solution is then equilibrated with 95% O2 /5% CO2 gas followed by titration to a pH of 7.4 with NaOH.
(c) Buffer B: 18.75 mg of collagenase and […] of BSA is dissolved in 25 ml of Buffer A.
(d) Buffer C: 0.3 g of BSA is dissolved in 300 ml of Buffer A.
(e) 6.25 mg Bacitracin is dissolved in 25 ml of Buffer A.
(f) ^125 I-(Leu-15)-Gastrin: 100 microcurie dissolved in 2.0 ml of Buffer A to make 50 microcurie/ml.
(g) ^125 I-(15-methionine)-Human Gastrin: 50 microcurie/ml.
(h) (Leu 15)-Gastrin: 5.2 mg of (Leu-15)- Gastrin is dissolved in 10 ml of Buffer A. At the time of assay 1:10 dilution is made and 10 μl assay tube is used.
A guinea pig (Hartley Strain) weighing 150-200 grams, is sacrificed by CO2 asphyxiation and the stomach immediately excised, cut along the greater curvature, cleaned out and immediately immersed in a beaker containing cold PBS, pH 7.3, to insure thorough cleaning. The fundic mucosa is gently scraped off the submucosa and added to a preweighed 50 ml plastic centrifuge tube containing 30 ml of cold Buffer A. The weight of the plastic centrifuge tube containing the buffer is then subtracted from the combined weight of the mucosa and the buffer-containing tube to give the weight of the mucosa. The weight of the mucosa thus determined is recorded for later calculations.
The mucosa is then washed twice in Buffer A. After the final wash, the tissue is minced and is placed in a 100-ml glass beaker containing about 1.0 ml of Buffer A, and washed twice again by repeated centrifugation at 50×g for 5 minutes each and aspiration of supernatant. The washed tissue fragments are then added to a glass Erlenmeyer flask containing 25 ml of Buffer B and incubated in a Dubnoff shaking water bath at 37° C. for 30 minutes in a 95% O2 - 5% CO2 atmosphere. After the incubation, the digested tissue fragments in the Collegenase-buffer solution are triturated, filtered through a 200-micron nylon mesh and centrifuged at 50×g for 5 minutes. The supernatant is aspirated and discarded, the tissue washed 2× in Buffer C, resuspended in same buffer, incubated in a 37° C. water bath in an atmosphere of 95% O2 - 5% CO2 for 5 minutes, and centrifuged. The pelleted glands are suspended in Buffer D at a desired concentration of 2x10^5 glands/ml to use in the receptor binding assay.
Six minisorp tubes (16×100 mm) are serially marked and divided into two groups thus: tubes #1, #2, and #3 are marked "T" for "Totals" and tubes #4, #5, and #6 are marked "NS" for "Non-Specifics." Into each of the six tubes are added 220 μl of prepared glands in Buffer D; 20 μl of Buffer A in tubes #1, #2, and #3; 10 μl, in tubes #4, #5 and #6; (10μ of (Leu-15)-Gastrin (25 μM) in tubes #4, #5, and #6. The six tubes are then transferred immediately to a 25° C. water bath and challenged each with 10 μl ^125 I-(Leu-15)-Gastrin diluted as per calculation. The tubes are then covered with a gas hood connected to a 95% O2 - 5% CO2 gas source and mechanically agitated in a shaker for 30 minutes.
At the end of the incubation period, the assay mixtures are each filtered through a Whatman glass fiber filter B on a Brandel tissue harvester and washed twice with Buffer A. The filters are pre-soaked in Buffer C before use. The filter strips are removed after the final wash and individual filters counted in a Gamma Counter. The counts from the "Non-Specific" tubes are then averaged and subtracted from the average "Totals" to give the Specific Counts. […]

Row | SMILES | IC50 [µM]
1 | CC(C)C[C@H](NC(=O)[C@H]1Cc2c([nH]c3ccccc23)CN1C(=O)Nc1ccc(Cl)c(Cl)c1)C(=O)NCC(N)=O [Example 28] | 0.91
2 | Cc1cccc(NC(=O)N2Cc3[nH]c4ccccc4c3C[C@@H]2C(=O)N[C@@H](CC(C)C)C(N)=O)c1 [Example 39, N-[(3R)-2-(3-methylphenylcarbamoyl)-1,2,3,4-tetrahydro-9H-pyrido[3,4-b]indole-3-carboxy]-L-leucinamide] | 0.23
3 | CC(C)C[C@H](NC(=O)[C@H]1Cc2c([nH]c3ccccc23)CN1)C(=O)N[C@@H](CC(=O)OCc1ccccc1)C(N)=O [Example 40] | 6
4 | Cc1cccc(NC(=O)N2Cc3[nH]c4ccccc4c3C[C@@H]2C(=O)N[C@@H](CC(C)C)C(=O)N[C@@H](Cc2ccccc2)C(N)=O)c1 [Example 42] | 10
5 | CCOC(=O)c1ccc(NC(=O)[C@H]2Cc3c([nH]c4ccccc34)CN2C(=O)Nc2cccc(C)c2)cc1 [Example 43] | 30
6 | Cc1cccc(NC(=O)N2Cc3[nH]c4ccccc4c3C[C@@H]2C(=O)N2CCC[C@H]2C(=O)N[C@@H](CC(=O)O)C(N)=O)c1 [Example 44, N-[(3R)-2-(3-methylphenylcarbamoyl)-1,2,3,4-tetrahydro-9H-pyrido[3,4-b]indole-3-carboxyl]-L-prolyl-L-aspartic acid amide] | 2.2
7 | Cc1cccc(NC(=O)N2Cc3[nH]c4ccccc4c3C[C@@H]2C(=O)N[C@H](CC(C)C)C(=O)N[C@H](CC(=O)O)C(N)=O)c1 [Example 45] | > 10
8 | CCCCCN(CCCCC)C(=O)[C@H](CC(=O)O)NC(=O)[C@H]1Cc2c([nH]c3ccccc23)CN1C(=O)Nc1cccc(C)c1 [Example 46, N-[(3R)-2-(3-methylphenylcarbamoyl)-1,2,3,4-tetrahydro-9H-pyrido[3,4-b]indole-3-carboxyl]-L-aspartic acid dipentyl amide] | 2.6
9 | Cc1cccc(NC(=O)N2Cc3[nH]c4ccccc4c3C[C@H]2C(=O)N[C@H](CC(C)C)C(=O)N[C@H](CC(=O)O)C(N)=O)c1 [Example 49] | 0.9
10 | Cc1cccc(NC(=O)N2Cc3[nH]c4ccccc4c3C[C@@H]2C(=O)N[C@@H](CC(C)C)C(=O)N[C@@H](CC(N)=O)C(=O)O)c1 [Example 50] | 12
11 | Cc1cccc(NC(=O)N2Cc3[nH]c4ccccc4c3C[C@@H]2C(=O)N[C@@H](CC(C)C)C(=O)N[C@H](CC(=O)O)C(N)=O)c1 [Example 51, N-[(3R)-2-(3-methylphenylcarbamoyl)-1,2,3,4-tetrahydro-9H-pyrido[3,4-b]indole-3-carboxyl]-L-leucyl-D-aspartic acid amide] | 17
12 | Cc1cccc(NC(=O)N2Cc3[nH]c4ccccc4c3C[C@H]2C(=O)N[C@H](CC(C)C)C(=O)N[C@@H](CC(=O)O)C(N)=O)c1 [Example 52] | > 30
13 | Cc1cccc(NC(=O)N2Cc3[nH]c4ccccc4c3C[C@@H]2C(=O)N(C)[C@@H](CC(C)C)C(=O)N[C@@H](CC(=O)O)C(N)=O)c1 [Example 53, N-[(3R)-2-(3-methylphenylcarbamoyl)-1,2,3,4-tetrahydro-9H-pyrido[3,4-b]indole-3-carboxyl]N'-methyl-L-leucine-L-aspartic acid amide] | 6
14 | Cc1cccc(C(=O)N2Cc3[nH]c4ccccc4c3C[C@@H]2C(=O)N[C@@H](CC(C)C)C(=O)N[C@@H](CC(=O)O)C(N)=O)c1 [Example 54] | 6.8
15 | CC(C)C[C@H](NC(=O)[C@H]1Cc2c([nH]c3ccccc23)CN1C(=O)Nc1ccc(Cl)cc1)C(=O)N[C@@H](CC(=O)O)C(N)=O [Example 55, N-[(3R)-2-(4-chlorophenylcarbamoyl)-1,2,3,4-tetrahydro-9H-pyrido[3,4-b]indole-3-carboxyl]-L-leucyl-L-asartic acid amide] | 3.3
16 | Cc1cccc(NC(=O)N2Cc3[nH]c4ccccc4c3C[C@@H]2C(=O)NCC(=O)N[C@@H](CC(=O)O)C(N)=O)c1 [Example 56, N-[(3R)-2-(3-methylphenylcarbamoyl)-1,2,3,4-tetrahydro-9H-pyido[3,4-b]indole-3-carboxyl]glycyl-L-aspartic acid amide] | > 30
17 | Cc1cccc(NC(=O)N2Cc3[nH]c4ccccc4c3C[C@@H]2C(=O)N[C@H](CC(C)C)C(=O)N[C@@H](CC(=O)O)C(N)=O)c1 [Example 57, N-[(3R)-2-(3-methylphenylcarbamoyl)-1,2,3,4-tetrahydro-9H-pyrido[3,4-b]indole-3-carboxyl]-D-leucyl-L-aspartic acid amide] | 22
18 | Cc1cccc(NC(=O)N2Cc3[nH]c4ccccc4c3C[C@@H]2C(=O)N[C@@H](C)C(=O)N[C@@H](CC(=O)O)C(N)=O)c1 [Example 58] | 18
19 | CC(C)C[C@H](NC(=O)[C@H]1Cc2c([nH]c3ccccc23)CN1C(=O)Nc1cc(Cl)cc(Cl)c1)C(=O)N[C@@H](CC(=O)O)C(N)=O [Example 59, N-[(3R)-2-(3,5-dichlorophenylcarbamoyl)-1,2,3,4-tetrahydro-9H-pyrido[3,4-b]indole-3-carboxyl]-L-leucyl-L-aspartic acid amide] | 2
20 | Cc1cc(C)cc(NC(=O)N2Cc3[nH]c4ccccc4c3C[C@@H]2C(=O)N[C@@H](CC(C)C)C(=O)N[C@@H](CC(=O)O)C(N)=O)c1 [Example 60, N-[(3R)-2-(3,5-dimethylphenylcarbamoyl)-1,2,3,4-tetrahydro-9H-pyrido[3,4-b]indole-3-carboxyl]-L-leucyl-L-aspartic acid amide] | 15
21 | COc1cccc(NC(=O)N2Cc3[nH]c4ccccc4c3C[C@@H]2C(=O)N[C@@H](CC(C)C)C(=O)N[C@@H](CC(=O)O)C(N)=O)c1 [Example 61] | 6.4
22 | CC(C)C[C@H](NC(=O)[C@H]1Cc2c([nH]c3ccccc23)CN1C(=O)Nc1ccc2ccccc2c1)C(=O)N[C@@H](CC(=O)O)C(N)=O [Example 62] | 1.2
23 | CC(C)C[C@H](NC(=O)[C@H]1Cc2c([nH]c3ccccc23)CN1C(=O)Nc1cccc(C(F)(F)F)c1)C(=O)N[C@@H](CC(=O)O)C(N)=O [Example 63] | 4.1
24 | Cc1cccc(NC(=O)N2Cc3[nH]c4ccccc4c3C[C@@H]2C(=O)N[C@@H](COCc2ccccc2)C(=O)N[C@@H](CC(=O)O)C(N)=O)c1 [Example 64] | 5.3
25 | CC(C)C[C@H](NC(=O)[C@H]1Cc2c([nH]c3ccccc23)CN1C(=O)Nc1cccc(F)c1)C(=O)N[C@@H](CC(=O)O)C(N)=O [Example 65] | 7.3
26 | CC(C)C[C@H](NC(=O)[C@H]1Cc2c([nH]c3ccccc23)CN1C(=O)Nc1ccc(Cl)c(Cl)c1)C(=O)N[C@@H](CC(=O)O)C(N)=O [Example 66] | 0.54
